According to patent US12613249B2 (THE ROYAL INSTITUTION FOR THE ADVANCEMENT OF LEARNING / …, priority 2019, dated 2026):
Where “and” joins values, the source holds several entries; their conditions need not be identical. Equal entries are not always repeated. Square brackets hold non-standard residues; d marks the D form. Peptide text beside a SMILES is read from it.

Tests used:
[1] = Ex-vivo stability in mouse plasma, MALDI-TOF MS; assay type: in vitro ADME, C57BL/6 mice; conditions: 37° C., 24 h
Description: The stability of D-AIP in mouse plasma, blood and liver S-9 fraction was investigated to ascertain the metabolic resistance towards proteases and enzymatic activities in these matrices. Whole mouse blood obtained from healthy C57BL/6 male and female mice (6 mice in total) were collected in lithium heparin containing tubes, pooled and stored at 4° C. prior to its use. A fraction of the pooled blood was immediately centrifuged at 1500×g for 10 min at 4° C. to obtain the plasma. The whole blood and plasma samples were spiked with PBS (as control) or AIP (L-AIP, D-AIP or sD-AIP respectively) to make a final concentration of 1 ug/mL and incubated at 37° C. Initial samples were withdrawn to represent t=0 prior to incubation and others were withdrawn 1, 3 and 24 h respectively. Fresh mouse liver also obtained from C57BL/6 male and female mice were pooled, homogenized in 0.15 M Potassium chloride (KCl) and centrifuged at 9000×g. […] The samples were then vigorously mixed for 30 s to facilitate extraction and centrifuged for 10 minutes at 13000 rpm, the supernatant was subjected to sample clean up by C18 ZipTip (EMD Millipore Corporation), the eluates were spotted with CHCA matrix on the ground steel MALDI-TOF target and analyzed with MALDI-TOF MS. […]

[2] = Plasma pharmacokinetics after single oral dose, LC-MS; assay type: in vivo, C57BL/6 mice; conditions: for CL/F (apparent total clearance from plasma) / λz (elimination rate constant): plasma
Description: (§1) An internal standard (IS) for the reliable quantification of D-AIP in biological matrices was prepared by dimethylation to produce an analog of D-AIP by using a protocol previously described (Boersema et al., 2009, Nat Protoc, 4:484-494). Standard solutions (1 mg/mL) each of D-AIP and IS were prepared in deionized water and 100% methanol respectively. 100 μL of IS working solution was prepared at 50 ng/ml added to 25 μL of the sample (plasma or brain homogenate). The sample was vortexed for approximately 5 s and let stand for 10 min, then centrifuged at 16,000 g for 10 min. The supernatant was transferred to a 13×100 polypropylene tube and evaporated to dryness at 50° C. under gentle stream of nitrogen. The dry extract was re-suspended with 40 μL of 0.1% (v/v) formic acid (Sigma Aldrich, St-Louis, MO, USA) in deionized water and transferred to an injection vial for analysis.
(§2) Thermo Scientific TSQ Quantiva Triple Quadrupole mass spectrometer (San Jose, CA, USA) was interfaced with the Thermo Scientific UltiMate 3000 XRS UHPLC system (San Jose, CA, USA) using a pneumatic assisted heated electrospray ion source. Data acquisition and analysis were performed using Xcalibur 4.0 (San Jose, CA, USA).
(§3) […]radient elution was used with a Thermo Scientific BioBasic-8 column (100×2 mm I.D. 5 μm) operating at 40° C. The initial mobile phase condition consisted of 0.1% formic acid in acetonitrile and 0.1% formic acid in deionized water at a ratio of 5:95, respectively and this ration was maintained for 1 min. A linear gradient was applied from 1 to 5 min up to a ratio of 50:50 and maintained for 1 min. At 6.1 min, the mobile phase composition was reverted to 5:95 and the column was allowed to equilibrate for 7.9 min for a total run time of 14 min. The D-AIP and IS eluted at 4.7 and 4.8 min respectively at a fixed flow rate of 0.2 mL/min. The eluent was diverted to waste for the first minute and last six minutes. Extracted sample (5 μL) was injected and the acquisition time was set to 14 min.
(§4) The mass spectrometer was interfaced with ultra-high-performance liquid chromatography (UHPLC) system using a pneumatic assisted heated electrospray ion source with detection in positive ion mode using […] (MRM). For proper optimization of the mass spectrometer, standard solutions of D-AIP and IS were infused. The obtained source parameters were 50 and 15 arbitrary units respectively while using nitrogen for the sheath and auxiliary gases. The HESI electrode was set to 3500 V, capillary and vaporizer temperature were both set to 300° C. respectively. The MS/MS parameters were optimized using the doubly charged species. Argon was used as collision gas at a pressure of 2.5 mTorr. The precursor-ion reaction for D-AIP were set to 471.4→[591.8+648.3] and for the IS the MRM transitions were set to 499.4→[425.8+468.8+476.8]
(§5) Standard solution of D-AIP (1 mg/mL) was diluted in various volumes of deionized water to obtain series of standard working solutions. Calibration standards were prepared by fortifying the mouse plasma and mouse brain homogenate with the standard working solutions at 10% (v/v) to enable analytical concentration range of 1.00 to 1000 ng/ml. The method is linear using a linear regression weighted 1/x analysis, a value of R^2≥0.9979 was obtained for plasma and R^2≥0.9991 for brain homogenate. Samples were injected in duplicate with the calculated in each case and concentrations were processed from the equation obtained from the respective calibration curves using Xcalibur 4.0 software.
(§6) Animal care and all animal experiments were undertaken with federal guidelines and approval of the Institutional Animal Ethical Committee of McGill University, Montreal, Canada (Protocol Application Number: 2017-7880) and adequate measures were taken to minimize pain or discomfort. […]

[3] = Brain homogenate concentrations after single oral dose, LC-MS; assay type: in vivo, C57BL/6 mice; conditions: for maximum brain concentration / peak brain concentration: brain homogenate; for maximum brain concentration / time of maximum brain concentration: female mice
Description: as §1, §2, §3, §4, §5, §6

[4] = female C57BL/6 mice, single oral dose 10 mg/kg
[5] = female C57BL/6 mice, single oral dose 30 mg/kg
[6] = female C57BL/6 mice, single oral dose 100 mg/kg
[7] = male C57BL/6 mice, single oral dose 10 mg/kg
[8] = male C57BL/6 mice, single oral dose 100 mg/kg

C[C@H](O)[C@@H](NC(=O)CNC(=O)[C@H](N)CCCNC(=N)N)C(=O)N[C@H](Cc1ccccc1)C(=O)N[C@H](CCC(=O)O)C(=O)NCC(=O)N[C@H](CCCCN)C(=O)N[C@H](Cc1ccccc1)C(=O)O [D-AIP] (H-[dR]G[dT][dF][dE]G[dK][dF]-OH; N-terminus and C-terminus assumed)
stability, MALDI-TOF MS signal (941 m/z) [1]: relatively stable over 24 h
dose relationship of AUC values ([2]; 10, 30, 100 mg/kg oral, both sexes): linear in both sexes
plasma concentration decline ([2]; both sexes, all doses): reached baseline levels after 24 h
CL/F (apparent total clearance from plasma) [2, 4]: 30.04 L/h
λz (elimination rate constant) [2, 4]: 0.06 h⁻¹
CL/F (apparent total clearance from plasma) [2, 5]: 42.02 L/h
λz (elimination rate constant) [2, 5]: 0.10 h⁻¹
CL/F (apparent total clearance from plasma) [2, 6]: 51.54 L/h
λz (elimination rate constant) [2, 6]: 0.21 h⁻¹
CL/F (apparent total clearance from plasma) [2, 7]: 35.81 L/h
λz (elimination rate constant) [2, 7]: 0.15 h⁻¹
CL/F (apparent total clearance from plasma) ([2]; male C57BL/6 mice, single oral dose 30 mg/kg): 36.02 L/h
λz (elimination rate constant) ([2]; male C57BL/6 mice, single oral dose 30 mg/kg, 30 mg/kg): 0.21 h^−1 and 0.21. h^−1
CL/F (apparent total clearance from plasma) [2, 8]: 48.79 L/h
λz (elimination rate constant) [2, 8]: 0.24 h⁻¹
tissue level at time at 4 h ([3]; C57BL/6, mouse, brain, male mice, highest dose (100 mg/kg oral), after 4 h, read-out: brain concentration during elimination): 38.5 ng/g
maximum brain concentration ([3]; single oral dose 10 mg/kg, at 4 h): 28.91 ng/g
maximum brain concentration ([3]; single oral dose 30 mg/kg, at 2 h): 136.29 ng/g
maximum brain concentration ([3]; single oral dose 100 mg/kg, at 2 h): 707.95 ng/g
peak brain concentration ([3]; male mice, single oral dose 10 mg/kg, at 4 h): 133.15 ng/g
peak brain concentration ([3]; male mice, single oral dose 30 mg/kg, at 2 h): 262.00 ng/g
peak brain concentration ([3]; male mice, single oral dose 100 mg/kg, at 0.5 h): 509.24 ng/g
crossing of the BBB ([3]; female and male mice, single oral doses 10, 30, 100 mg/kg): crossed the BBB and reached the brain
time of maximum brain concentration ([3]; single oral dose 10 mg/kg): 4 h
time of maximum brain concentration ([3]; single oral dose 30 mg/kg): 2 h
time of maximum brain concentration ([3]; single oral dose 100 mg/kg): 2 h
time of peak brain concentration ([3]; male mice, single oral dose 10 mg/kg): 4 h
time of peak brain concentration ([3]; male mice, single oral dose 30 mg/kg): 2 h
time of peak brain concentration ([3]; male mice, single oral dose 100 mg/kg): 0.5 h
